This note sets out measurements from PMC10489644, “In Vitro Evaluation of the Potential for Drug Interactions by Salidroside” (Nutrients, 2023).

For one data set, the target named is T1, CYP2C8 (Homo sapiens, UniProt P10632).
T1 sequence (P10632 1-490): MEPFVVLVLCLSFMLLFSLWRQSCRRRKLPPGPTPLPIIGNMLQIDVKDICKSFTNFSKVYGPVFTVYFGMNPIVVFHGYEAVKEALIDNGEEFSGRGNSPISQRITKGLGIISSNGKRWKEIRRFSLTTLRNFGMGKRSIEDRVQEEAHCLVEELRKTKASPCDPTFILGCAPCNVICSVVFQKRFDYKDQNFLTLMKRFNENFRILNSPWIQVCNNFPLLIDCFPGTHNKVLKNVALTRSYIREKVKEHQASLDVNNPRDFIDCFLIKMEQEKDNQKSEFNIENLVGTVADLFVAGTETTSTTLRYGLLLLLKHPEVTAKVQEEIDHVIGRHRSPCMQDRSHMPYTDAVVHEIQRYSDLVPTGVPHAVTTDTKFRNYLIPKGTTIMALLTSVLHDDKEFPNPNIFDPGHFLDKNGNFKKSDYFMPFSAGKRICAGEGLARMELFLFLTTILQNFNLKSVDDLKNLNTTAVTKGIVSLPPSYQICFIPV
The following applies: microsomes.

Another data set relates to CYP3A4/5. The settings on record: microsomes.
For a further data set, the system named is CYP3A4. The settings on record: human, 48 h.

Structures are written as SMILES. Like-named read-outs stand apart in the source and are kept apart here.

Protocol for CYP2C8: (§1) Incubation without 30 min pre-incubation, 178.5 µL of liver microsomes working was pre-incubated in a 37 °C water bath for 30 min. After the pre-incubation, 1.5 μL of test compound or control compound working solution, 60 μL of substrate working solution, and 60 μL of NADPH working solution were added; then, the reaction mixture was mixed by pipetting up and down and then incubated at 37 °C for 10 min. Incubation with 30 min pre-incubation. Next, 1.5 μL of test compound or control compound working solutions and 60 μL of NADPH working solution were added into 178.5 μL of liver microsome working solution, then the reaction mixture was mixed by pipetting up and down and then pre-incubated at 37 °C for 30 min. […]
(§2) For competitive and time-dependent CYP inhibition, the peak area ratios (PAR) of analyte/internal standard were used to semi-quantitatively determine the concentration of acetaminophen (CYP1A2 activity), 4’-hydroxydiclofenac (CYP2C9), 4’-hydroxymephenytoin (CYP2C19), dextrorphan (CYP2D6), 1’-hydroxymidazolam (CYP3A4), 6β-hydroxytestosterone (CYP3A4), hydroxybupropion (CYP2B6), and N-desethylamodiaquine (CYP2C8), with terfenadine as the internal standard by LC-MS/MS method. The HPLC-MS system utilized an Acquity UPLC system and Sciex API 4000 mass spectrometer in ESI positive mode, with quantitation employing MRM. […]
Protocol for CYP3A4/5: as §1, §2

For `OC[C@H]1O[C@@H](OCCc2ccc(O)cc2)[C@H](O)[C@@H](O)[C@@H]1O` [Salidroside], the “IC50 Shift” value at CYP2C8 and with CYP3A4/5 was “no shift” in each case. For the same compound, the “% Positive Control” value in the data set with CYP3A4 (3 µM) and with CYP3A4 (10 µM) was 0% in each case.
